The source made the active and inactive calls. The rule behind the calls is not given here.
Legend:
[1] = Half life in Sprague-Dawley rat at 3 mg/kg administered as multiple dose after 8 days; type: ADME, organism-based; set-up: dose 3 mg/kg; conditions: in vivo
[2] = Half life in Sprague-Dawley rat at 0.1 mg/kg administered as multiple dose after 8 days; type: ADME, organism-based; set-up: dose 0.1 mg/kg; conditions: in vivo
[3] = Half life in Sprague-Dawley rat at 3 mg/kg administered as single dose on day 8; type: ADME, organism-based; set-up: dose 3 mg/kg; conditions: in vivo
[4] = Half life in ob/ob C57BL/6J-leptin deficient obese mouse at 0.3 mg/kg administered as multiple dose after 11 days; type: ADME, organism-based; set-up: dose 0.3 mg/kg; conditions: in vivo
[5] = Induction of Pa9 gene expression in human skeletal muscle cells at 1000 nM by RT-PCR; type: functional
[6] = Cmax in ob/ob C57BL/6J-leptin deficient obese mouse at 3 mg/kg administered as single dose on day 11; type: ADME, organism-based; set-up: dose 3 mg/kg; conditions: in vivo
[7] = AUC in Sprague-Dawley rat at 3 mg/kg administered as single dose on day 8; type: ADME, organism-based; set-up: dose 3 mg/kg; conditions: plasma
[8] = target: T1, Glucocorticoid receptor (Homo sapiens) (UniProt P04150); assay: Activity at glucocorticoid receptor
T1 sequence (whole entry): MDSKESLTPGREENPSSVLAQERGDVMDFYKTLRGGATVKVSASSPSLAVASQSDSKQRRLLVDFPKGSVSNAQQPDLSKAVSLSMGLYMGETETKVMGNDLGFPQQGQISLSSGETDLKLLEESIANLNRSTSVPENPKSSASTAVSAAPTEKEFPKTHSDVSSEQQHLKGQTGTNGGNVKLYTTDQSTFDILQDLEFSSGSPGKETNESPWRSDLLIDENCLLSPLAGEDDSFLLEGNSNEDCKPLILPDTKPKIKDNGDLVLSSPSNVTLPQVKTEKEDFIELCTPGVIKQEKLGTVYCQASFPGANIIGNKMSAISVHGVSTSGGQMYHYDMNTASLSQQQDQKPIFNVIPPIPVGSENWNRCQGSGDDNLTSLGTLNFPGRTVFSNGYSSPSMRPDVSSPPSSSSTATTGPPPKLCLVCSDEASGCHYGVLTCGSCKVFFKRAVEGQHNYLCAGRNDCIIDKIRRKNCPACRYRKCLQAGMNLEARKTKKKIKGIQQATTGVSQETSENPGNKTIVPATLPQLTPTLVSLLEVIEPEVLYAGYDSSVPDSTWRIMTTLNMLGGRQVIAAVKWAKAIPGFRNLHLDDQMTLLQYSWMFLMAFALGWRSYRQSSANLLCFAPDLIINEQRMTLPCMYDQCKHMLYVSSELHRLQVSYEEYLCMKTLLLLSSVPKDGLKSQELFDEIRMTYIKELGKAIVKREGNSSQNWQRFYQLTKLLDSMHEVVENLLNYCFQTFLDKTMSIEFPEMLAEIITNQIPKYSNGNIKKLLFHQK

[9] = AUC in Sprague-Dawley rat at 3 mg/kg administered as multiple dose after 8 days; type: ADME, organism-based; set-up: dose 3 mg/kg; conditions: plasma
[10] = Cmax in ob/ob C57BL/6J-leptin deficient obese mouse at 3 mg/kg administered as multiple dose after 11 days; type: ADME, organism-based; set-up: dose 3 mg/kg; conditions: in vivo
[11] = Half life in Beagle dog at 10 mg/kg administered as multiple dose after 7 days; type: ADME, organism-based, Canis lupus familiaris; set-up: dose 10 mg/kg; conditions: in vivo
[12] = AUC in Beagle dog at 0.3 mg/kg administered as multiple dose after 7 days; type: ADME, organism-based, Canis lupus familiaris; set-up: dose 0.3 mg/kg; conditions: plasma
[13] = AUC in ob/ob C57BL/6J-leptin deficient obese mouse at 0.1 mg/kg administered as multiple dose after 11 days; type: ADME, organism-based; set-up: dose 0.1 mg/kg; conditions: plasma
[14] = Cmax in Beagle dog at 10 mg/kg administered as single dose on day 7; type: ADME, organism-based, Canis lupus familiaris; set-up: dose 10 mg/kg; conditions: in vivo
[15] = Induction of Pa9 gene expression in human skeletal muscle cells at 1 nM by RT-PCR; type: functional
[16] = Half life in ob/ob C57BL/6J-leptin deficient obese mouse at 3 mg/kg administered as single dose on day 11; type: ADME, organism-based; set-up: dose 3 mg/kg; conditions: in vivo
[17] = Half life in Sprague-Dawley rat at 1 mg/kg administered as multiple dose after 8 days; type: ADME, organism-based; set-up: dose 1 mg/kg; conditions: in vivo
[18] = Induction of CPT1 gene expression in human skeletal muscle cells at 1 nM by RT-PCR; type: functional
[19] = Inhibition of cytochrome P450 in human liver microsome; type: ADME, microsomes
[20] = target: T2, Bile acid receptor (Homo sapiens) (UniProt Q96RI1); assay: Activity at farnesoid X receptor
T2 sequence (whole entry): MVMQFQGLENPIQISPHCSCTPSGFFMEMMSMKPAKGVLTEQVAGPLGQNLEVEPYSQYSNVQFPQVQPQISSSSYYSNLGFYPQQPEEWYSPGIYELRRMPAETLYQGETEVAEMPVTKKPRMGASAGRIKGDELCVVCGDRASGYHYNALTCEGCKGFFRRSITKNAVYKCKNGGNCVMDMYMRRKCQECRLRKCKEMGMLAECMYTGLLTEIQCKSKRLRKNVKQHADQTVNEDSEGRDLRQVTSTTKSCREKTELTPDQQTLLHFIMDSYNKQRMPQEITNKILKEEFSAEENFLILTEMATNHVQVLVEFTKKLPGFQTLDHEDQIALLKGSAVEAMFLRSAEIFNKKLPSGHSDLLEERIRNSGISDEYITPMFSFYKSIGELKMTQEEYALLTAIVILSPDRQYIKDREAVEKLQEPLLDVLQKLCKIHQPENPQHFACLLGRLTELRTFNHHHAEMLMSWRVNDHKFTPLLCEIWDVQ

[21] = AUC in Beagle dog at 10 mg/kg administered as multiple dose after 7 days; type: ADME, organism-based, Canis lupus familiaris; set-up: dose 10 mg/kg; conditions: plasma
[22] = AUC in Beagle dog at 1 mg/kg administered as multiple dose after 7 days; type: ADME, organism-based, Canis lupus familiaris; set-up: dose 1 mg/kg; conditions: plasma
[23] = AUC in ob/ob C57BL/6J-leptin deficient obese mouse at 3 mg/kg administered as single dose on day 11; type: ADME, organism-based; set-up: dose 3 mg/kg; conditions: plasma
[24] = AUC in ob/ob C57BL/6J-leptin deficient obese mouse at 0.3 mg/kg administered as multiple dose after 11 days; type: ADME, organism-based; set-up: dose 0.3 mg/kg; conditions: plasma
[25] = Half life in Beagle dog at 0.3 mg/kg administered as multiple dose after 7 days; type: ADME, organism-based, Canis lupus familiaris; set-up: dose 0.3 mg/kg; conditions: in vivo
Canis familiaris = assay: Increase in aspartate aminotransferase level in Beagle dog serum at 10 mg/kg, po/day after 7 days; type: functional, Canis lupus familiaris
[26] = AUC in Sprague-Dawley rat at 0.3 mg/kg administered as multiple dose after 8 days; type: ADME, organism-based; set-up: dose 0.3 mg/kg; conditions: plasma
Mus musculus [27] = assay: […] effect of ob/ob C57BL/6J-leptin deficient obese mouse assessed as increase in liver weight at 0.1 to 3 mg/kg, po after 11 days; type: functional; conditions: dose mg/kg 0.1-3
[28] = Activity at retinoic acid receptor
[29] = Half life in ob/ob C57BL/6J-leptin deficient obese mouse at 0.1 mg/kg administered as multiple dose after 11 days; type: ADME, organism-based; set-up: dose 0.1 mg/kg; conditions: in vivo
[30] = Half life in Beagle dog at 1 mg/kg administered as multiple dose after 7 days; type: ADME, organism-based, Canis lupus familiaris; set-up: dose 1 mg/kg; conditions: in vivo
[31] = Cmax in Beagle dog at 10 mg/kg administered as multiple dose after 7 days; type: ADME, organism-based, Canis lupus familiaris; set-up: dose 10 mg/kg; conditions: in vivo
Mus musculus [32] = assay: […] effect of ob/ob C57BL/6J-leptin deficient obese mouse assessed as reduction in serum insulin level at 0.1 to 3 mg/kg, po after 11 days; type: functional; set-up: scale not given: the % may be the effect or the level left; conditions: dose mg/kg 0.1-3
[33] = Cmax in ob/ob C57BL/6J-leptin deficient obese mouse at 1 mg/kg administered as multiple dose after 11 days; type: ADME, organism-based; set-up: dose 1 mg/kg; conditions: in vivo

Cc1cc(SCc2nc(-c3ccc(Cl)c(Cl)c3)ns2)ccc1OC(C)(C)C(=O)O
half-life [1]: 7.1 h
half-life [2]: 5.5 h
half-life [3]: 7.2 h
half-life [4]: 5 h
Fold change [5]: 15
Cmax [6]: 19300 ng/mL
AUC [7]: 24200 ng·h/mL
Activity [8]: inactive
AUC at 192 h [9]: 27100 ng·h/mL
Cmax [10]: 26300 ng/mL
half-life [11]: 6.2 h
AUC at 168 h [12]: 2650 ng·h/mL
AUC at 264 h [13]: 2780 ng·h/mL
Cmax [14]: 10100 ng/mL
Fold change [15]: 3.8
half-life [16]: 5.1 h
half-life [17]: 5.7 h
Fold change [18]: 3
IC50 [19]: > 30 µM
Activity [20]: inactive
AUC at 168 h [21]: 61600 ng·h/mL
AUC at 168 h [22]: 6500 ng·h/mL
AUC [23]: 115000 ng·h/mL
AUC at 264 h [24]: 10600 ng·h/mL
half-life [25]: 6.5 h
Fold change (Canis familiaris): 1.7
AUC at 192 h [26]: 2400 ng·h/mL
Activity (Mus musculus [27]): 65%
Activity [28]: inactive
half-life [29]: 5.1 h
half-life [30]: 4.7 h
Cmax [31]: 10100 ng/mL
Activity (Mus musculus [32]): 50%
Cmax [33]: 6830 ng/mL
